Measured values: ChEMBL document CHEMBL4665804, “Characterization of SPK 98, a Torin2 analog, as ATR and mTOR dual kinase inhibitor” (Bioorg Med Chem Lett, 2020)
≈ marks a conversion by molar mass, not a printed value. Calls of active or inactive are those of the source. No cut-off for these calls is given here.

Tests used:
[1] = biological target: Serine/threonine-protein kinase ATR (Homo sapiens) (UniProt Q13535); experiment: Inhibition of ATR in human HCT116 cells assessed as decrease in Chk1 phosphorylation at Ser317 residue by measuring decrease in foci formation at 50 nM treated for 1 hr prior to UV-irradiation exposure and measured after 1 hr by Immunofluorescence analysis; assay type: cell-based; conditions: HCT-116, time 2.0 hrs
[2] = system: HCT-116; experiment: Growth inhibition of human HCT116 cells measured after 72 hrs by Celltiter-Glo assay; assay type: functional
[3] = system: HeLa; experiment: Growth inhibition of human HeLa cells measured after 72 hrs by Celltiter-Glo assay; assay type: functional
[4] = system: HCT-116; experiment: Inhibition of ATR/mTOR in human HCT116 cells harboring ATM+/-p53+/+ gene allele assessed as premature chromatin condensation at 50 nM treated for 1 hr prior to UV-irradiation exposure and measured after 1 hr by DAPI staining based confocal microscopic method; assay type: cell-based; conditions: time 2.0 hrs
[5] = biological target: Serine/threonine-protein kinase ATR (Homo sapiens) (UniProt Q13535); experiment: Inhibition of ATR in human HCT116 cells assessed as decrease in Chk1 phosphorylation at Ser317 residue at 250 nM treated for 1 hr prior to UV-irradiation exposure and measured after 1 hr by Immunoblot analysis; assay type: cell-based; conditions: HCT-116, time 2.0 hrs
[6] = biological target: Serine/threonine-protein kinase mTOR (Homo sapiens) (UniProt P42345); experiment: Inhibition of mTOR in human HCT116 cells assessed as decrease in p70S6K phosphorylation at Thr389 residue at 50 nM treated for 1 hr prior to UV-irradiation exposure and measured after 1 hr by immunoblot analysis; assay type: cell-based; conditions: HCT-116, time 2.0 hrs
[7] = biological target: Serine/threonine-protein kinase mTOR (Homo sapiens) (UniProt P42345); experiment: Inhibition of mTOR in human HCT116 cells assessed as decrease in p70S6K phosphorylation at Thr389 residue at 250 nM treated for 1 hr prior to UV-irradiation exposure and measured after 1 hr by immunoblot analysis; assay type: cell-based; conditions: HCT-116, time 2.0 hrs
[8] = biological target: T1, Serine-protein kinase ATM (Homo sapiens, UniProt Q13315); experiment: Inhibition of ATM in human HCT116 cells assessed as decrease in gammaH2AX phosphorylation at Ser139 residue by measuring decrease in foci formation at 50 nM treated for 1 hr prior to UV-irradiation exposure and measured after 1 hr by immunofluorescence assay; assay type: cell-based; conditions: hct-116, 2 h, 0.05 µM
[9] = Aqueous solubility of the compound relative to Torin2; assay type: physicochemical; conditions: buffer
[10] = Stability in human liver microsomes assessed as proportion of drug metabolized measured after 30 mins; assay type: ADME, Microsome; conditions: read-out: Drug metabolism
[11] = Stability in mouse liver microsomes assessed as proportion of drug metabolized measured after 30 mins; assay type: ADME, Microsome; conditions: read-out: Drug metabolism
[12] = Stability in rat liver microsomes assessed as proportion of drug metabolized measured after 30 mins; assay type: ADME, Microsome; conditions: read-out: Drug metabolism
[13] = Half life in human liver microsome; assay type: ADME; conditions: liver microsomes
[14] = Half life in mouse liver microsome; assay type: ADME; conditions: liver microsomes
[15] = Half life in rat liver microsome; assay type: ADME; conditions: liver microsomes
[16] = Intrinsic clearance in human liver microsome; assay type: ADME; conditions: liver microsomes, read-out: CLH
[17] = Intrinsic clearance in mouse liver microsome; assay type: ADME; conditions: liver microsomes, read-out: CLH
[18] = Intrinsic clearance in rat liver microsome; assay type: ADME; conditions: liver microsomes, read-out: CLH
[19] = biological target: T1, Serine-protein kinase ATM; experiment: Inhibition of ATM in human HCT116 cells assessed as decrease in Chk2 phosphorylation at Thr68 residue by measuring decrease in foci formation at 50 nM treated for 1 hr prior to UV-irradiation exposure and measured after 1 hr by immunofluorescence assay; assay type: cell-based; conditions: hct-116, 2 h, 0.05 µM
[20] = Aqueous solubility of the compound; assay type: physicochemical

Chain of Serine/threonine-protein kinase ATR (Homo sapiens) (Q13535 whole entry, looked up): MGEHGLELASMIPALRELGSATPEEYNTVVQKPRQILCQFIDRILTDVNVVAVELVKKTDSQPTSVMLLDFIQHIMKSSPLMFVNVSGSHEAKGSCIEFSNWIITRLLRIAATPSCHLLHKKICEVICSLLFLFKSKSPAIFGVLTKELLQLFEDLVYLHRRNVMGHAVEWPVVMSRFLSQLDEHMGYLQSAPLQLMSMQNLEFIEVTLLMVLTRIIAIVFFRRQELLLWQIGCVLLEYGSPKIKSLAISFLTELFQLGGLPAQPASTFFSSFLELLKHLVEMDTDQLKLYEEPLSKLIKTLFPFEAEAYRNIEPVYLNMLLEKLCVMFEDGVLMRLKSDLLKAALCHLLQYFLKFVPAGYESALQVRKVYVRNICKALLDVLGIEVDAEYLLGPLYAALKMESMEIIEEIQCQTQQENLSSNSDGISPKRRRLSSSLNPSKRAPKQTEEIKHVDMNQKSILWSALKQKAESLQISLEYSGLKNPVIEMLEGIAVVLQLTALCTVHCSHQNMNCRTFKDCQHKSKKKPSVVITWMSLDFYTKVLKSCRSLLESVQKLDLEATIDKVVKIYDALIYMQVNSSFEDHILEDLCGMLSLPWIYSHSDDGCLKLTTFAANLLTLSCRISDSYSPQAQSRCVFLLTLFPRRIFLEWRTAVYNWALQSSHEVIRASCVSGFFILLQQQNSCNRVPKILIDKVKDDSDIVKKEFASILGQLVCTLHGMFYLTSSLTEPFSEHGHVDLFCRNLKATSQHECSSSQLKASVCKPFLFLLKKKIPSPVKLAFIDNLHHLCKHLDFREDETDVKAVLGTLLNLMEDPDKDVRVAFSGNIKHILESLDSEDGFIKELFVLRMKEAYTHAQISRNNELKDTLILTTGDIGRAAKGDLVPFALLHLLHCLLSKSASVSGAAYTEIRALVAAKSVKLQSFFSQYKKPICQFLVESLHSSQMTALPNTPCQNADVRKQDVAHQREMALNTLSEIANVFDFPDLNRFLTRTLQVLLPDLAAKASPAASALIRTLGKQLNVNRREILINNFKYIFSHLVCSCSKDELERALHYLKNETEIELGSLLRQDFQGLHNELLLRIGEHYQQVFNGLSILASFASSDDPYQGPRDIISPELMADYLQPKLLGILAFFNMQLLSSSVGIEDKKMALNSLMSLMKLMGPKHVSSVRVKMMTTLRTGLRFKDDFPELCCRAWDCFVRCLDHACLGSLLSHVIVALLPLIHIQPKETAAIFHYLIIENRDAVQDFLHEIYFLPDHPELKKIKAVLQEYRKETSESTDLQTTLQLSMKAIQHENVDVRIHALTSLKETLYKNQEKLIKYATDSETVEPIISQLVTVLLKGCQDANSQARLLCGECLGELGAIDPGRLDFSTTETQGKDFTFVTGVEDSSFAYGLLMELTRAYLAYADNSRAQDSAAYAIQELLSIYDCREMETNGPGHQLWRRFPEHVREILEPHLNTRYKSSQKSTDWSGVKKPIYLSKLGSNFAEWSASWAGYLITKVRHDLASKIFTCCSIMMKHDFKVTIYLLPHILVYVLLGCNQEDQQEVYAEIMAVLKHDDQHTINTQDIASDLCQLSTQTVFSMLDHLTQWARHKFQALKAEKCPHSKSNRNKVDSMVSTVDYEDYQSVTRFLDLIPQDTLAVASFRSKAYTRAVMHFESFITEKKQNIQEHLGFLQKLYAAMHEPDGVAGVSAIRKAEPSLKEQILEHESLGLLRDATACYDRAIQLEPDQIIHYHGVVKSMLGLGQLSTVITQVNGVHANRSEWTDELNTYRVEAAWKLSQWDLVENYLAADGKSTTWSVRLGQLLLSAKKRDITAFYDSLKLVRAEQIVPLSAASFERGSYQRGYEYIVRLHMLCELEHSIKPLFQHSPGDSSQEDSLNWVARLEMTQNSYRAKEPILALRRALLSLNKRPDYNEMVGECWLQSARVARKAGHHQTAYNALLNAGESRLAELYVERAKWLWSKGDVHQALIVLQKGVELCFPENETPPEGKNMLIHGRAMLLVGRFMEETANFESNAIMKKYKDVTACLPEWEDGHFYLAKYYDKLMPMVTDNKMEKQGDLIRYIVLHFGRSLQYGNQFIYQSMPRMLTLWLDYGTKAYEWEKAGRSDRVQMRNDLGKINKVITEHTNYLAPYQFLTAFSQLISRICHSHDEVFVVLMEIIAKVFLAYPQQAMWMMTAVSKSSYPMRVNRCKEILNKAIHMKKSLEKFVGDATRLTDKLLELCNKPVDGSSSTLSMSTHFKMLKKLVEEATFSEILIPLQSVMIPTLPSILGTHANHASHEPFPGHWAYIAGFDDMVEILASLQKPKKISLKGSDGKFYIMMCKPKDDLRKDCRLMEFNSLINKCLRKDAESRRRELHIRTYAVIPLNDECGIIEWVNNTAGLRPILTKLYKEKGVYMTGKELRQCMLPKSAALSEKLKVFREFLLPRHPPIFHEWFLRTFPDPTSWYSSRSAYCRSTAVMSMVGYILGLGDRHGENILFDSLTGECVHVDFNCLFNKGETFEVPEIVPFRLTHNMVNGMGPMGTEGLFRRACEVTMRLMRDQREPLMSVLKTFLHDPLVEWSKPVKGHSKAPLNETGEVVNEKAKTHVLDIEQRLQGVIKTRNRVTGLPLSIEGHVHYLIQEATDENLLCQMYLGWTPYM

Row | Compound | inhibition [1] | GI50 [2] [nM] | GI50 [3] [nM] | inhibition [4] | inhibition [5] | inhibition [6] | inhibition [7] | inhibition (INH) [8] | fold change (FC) [9] | metabolised at 0.5 h [10] [%] | metabolised at 0.5 h [11] [%] | metabolised at 0.5 h [12] [%] | half-life [13] [min] | half-life [14] [min] | half-life [15] [min] | microsomal CLint [16] [µL/min/mg] | microsomal CLint [17] [µL/min/mg] | microsomal CLint [18] [µL/min/mg] | inhibition (INH) [19] | solubility [20] [µM]
1 | Nc1ccc(-c2ccc3ncc4ccc(=O)n(-c5cccc(C(F)(F)F)c5)c4c3c2)cn1 | Active | 32.2 | 98 | Active | – | – | – | – | – | – | – | – | – | – | – | – | – | – | – | –
2 | Nc1cnc(-c2ccc3ncc4ccc(=O)n(-c5cccc(C(F)(F)F)c5)c4c3c2)cn1 | inactive | 135 | 121 | – | Active | Active | Active | Not Active | – | – | – | – | – | – | – | – | – | – | – | –
3 | O=c1ccc2cnc3ccc(-c4ccc(N5CCOCC5)nc4)cc3c2n1-c1cccc(C(F)(F)F)c1 | – | 800 | 330 | – | Active | Active | – | – | – | – | – | – | – | – | – | – | – | – | – | –
4 | CS(=O)(=O)Nc1ccc(-c2ccc3ncc4ccc(=O)n(-c5cccc(C(F)(F)F)c5)c4c3c2)cn1 | – | 1420 | – | – | Active | Active | – | – | – | – | – | – | – | – | – | – | – | – | – | –
5 | O=c1ccc2cnc3ccc(-c4ccc(N5CCNCC5)nc4)cc3c2n1-c1cccc(C(F)(F)F)c1 | Active | 56 | 50.4 | Active | 100% | Active | – | Not Active | 10 | 55 | 11 | 41 | 31 | 157 | 42 | 44 | 9 | 33 | Not Active | 22 (≈ 11 µg/mL)
